Data as given in PubChem BioAssay AID1963863 (Molecular Pharmacology Branch, DTP, NCI, 2024).

Test system: 931267-113-T-J1-PDC KRAS spheroid with HUVEC/MSC, viability
Assay: Anticancer human tumor 931267-113-T-J1-PDC patient-derived colon adenocarcinoma cell line growth inhibition [KRAS2]
Details: for IC50: curve of first compound; for viability, T/C: stronger effect = lower value
In short: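 Combination screen of spheroid viability in tumor-cell co-cultures with endothelial (HUVEC) and mesenchymal stem cell stroma. Each agent was tested in half-log dilutions, topping at clinical Cmax or at 10 microM without a known Cmax.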

[1] = second compound 0.1 µM, first compound 0.0316 µM
[2] = second compound 0.1 µM, first compound 0.1 µM
[3] = second compound 0.1 µM, first compound 0.316 µM
[4] = second compound 0.1 µM, first compound 1 µM
[5] = second compound 0.1 µM, first compound 3.16 µM
[6] = second compound 0.1 µM, first compound 10 µM
[7] = second compound 0.316 µM, first compound 0.0316 µM
[8] = second compound 0.316 µM, first compound 0.1 µM
[9] = second compound 0.316 µM, first compound 0.316 µM
[10] = second compound 0.316 µM, first compound 1 µM
[11] = second compound 0.316 µM, first compound 3.16 µM
[12] = second compound 0.316 µM, first compound 10 µM
[13] = second compound 1 µM, first compound 0.0316 µM
[14] = second compound 1 µM, first compound 0.1 µM
[15] = second compound 1 µM, first compound 0.316 µM
[16] = second compound 1 µM, first compound 1 µM
[17] = second compound 1 µM, first compound 3.16 µM
[18] = second compound 1 µM, first compound 10 µM
[19] = second compound 3.16 µM, first compound 0.0316 µM
[20] = second compound 3.16 µM, first compound 0.1 µM
[21] = second compound 3.16 µM, first compound 0.316 µM
[22] = second compound 3.16 µM, first compound 1 µM
[23] = second compound 3.16 µM, first compound 3.16 µM
[24] = second compound 3.16 µM, first compound 10 µM
[25] = second compound 10 µM, first compound 0.0316 µM
[26] = second compound 10 µM, first compound 0.1 µM
[27] = second compound 10 µM, first compound 0.316 µM
[28] = second compound 10 µM, first compound 1 µM
[29] = second compound 10 µM, first compound 3.16 µM
[30] = second compound 10 µM, first compound 10 µM
[31] = second compound 0.1 µM, first compound 0.00316 µM
[32] = second compound 0.1 µM, first compound 0.01 µM
[33] = second compound 0.316 µM, first compound 0.00316 µM
[34] = second compound 0.316 µM, first compound 0.01 µM
[35] = second compound 1 µM, first compound 0.00316 µM
[36] = second compound 1 µM, first compound 0.01 µM
[37] = second compound 3.16 µM, first compound 0.00316 µM
[38] = second compound 3.16 µM, first compound 0.01 µM
[39] = second compound 10 µM, first compound 0.00316 µM
[40] = second compound 10 µM, first compound 0.01 µM
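Further: compound exposure lasted 7 days before the readout.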
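Wherever viability, T/C is given: 100% = DMSO vehicle control viability.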

Compound | IC50 (second compound 0.1 µM) | IC50 (second compound 0.316 µM) | IC50 (second compound 1 µM) | IC50 (second compound 3.16 µM) | IC50 (second compound 10 µM) | viability, T/C [1] | viability, T/C [2] | viability, T/C [3] | viability, T/C [4] | viability, T/C [7] | viability, T/C [8] | viability, T/C [9] | viability, T/C [10] | viability, T/C [13] | viability, T/C [14] | viability, T/C [15] | viability, T/C [19] | viability, T/C [20] | viability, T/C [25] | viability, T/C [26] | also measured
CC(C)NCC(C(=O)N1CCN(c2ncnc3c2C(C)CC3O)CC1)c1ccc(Cl)cc1 (stereo not given) + C=CC(=O)N1CCN(c2nc(=O)n(-c3c(C)ccnc3C(C)C)c3nc(-c4c(O)cccc4F)c(F)cc23)C(C)C1 | 6740 nM | 5610 nM | 4630 nM | 6030 nM | 1810 nM | 109% | 97.2% | 85.8% | 89.1% | 95.5% | 83.2% | 80.2% | 75.1% | 95.9% | 96% | 76.8% | 83.7% | 90.6% | 81.4% | 71.4% | viability, T/C [5]: 71.7%; viability, T/C [6]: 38.5%; viability, T/C [11]: 62.5%; viability, T/C [12]: 38.2%; viability, T/C [16]: 71.2%; viability, T/C [17]: 68%; viability, T/C [18]: 28.8%; viability, T/C [21]: 80.6%; viability, T/C [22]: 79.1%; viability, T/C [23]: 64.7%; viability, T/C [24]: 38.3%; viability, T/C [27]: 70.5%; viability, T/C [28]: 49.7%; viability, T/C [29]: 50.7%; viability, T/C [30]: 22.4%
CC1(C)CCC(CN2CCN(c3ccc(C(=O)NS(=O)(=O)c4ccc(NCC5CCOCC5)c([N+](=O)[O-])c4)c(Oc4cnc5[nH]ccc5c4)c3)CC2)=C(c2ccc(Cl)cc2)C1 + C=CC(=O)N1CCN(c2nc(=O)n(-c3c(C)ccnc3C(C)C)c3nc(-c4c(O)cccc4F)c(F)cc23)C(C)C1 | 2240 nM | 1820 nM | 1990 nM | 2120 nM | 1770 nM | 107% | 85% | 84.2% | 103% | 86.8% | 102% | 96.8% | 71.6% | 86.5% | 104% | 79.9% | 76.4% | 98% | 98.5% | 75.2% | viability, T/C [5]: 30.8%; viability, T/C [6]: 5.11%; viability, T/C [11]: 29.5%; viability, T/C [12]: 10.2%; viability, T/C [16]: 91.7%; viability, T/C [17]: 22.5%; viability, T/C [18]: 2.37%; viability, T/C [21]: 109%; viability, T/C [22]: 99%; viability, T/C [23]: 25.7%; viability, T/C [24]: 8.95%; viability, T/C [27]: 83.1%; viability, T/C [28]: 76.5%; viability, T/C [29]: 23.1%; viability, T/C [30]: 3.34%
CCN1CCN(Cc2ccc(Nc3ncc(F)c(-c4cc(F)c5nc(C)n(C(C)C)c5c4)n3)nc2)CC1 + C=CC(=O)N1CCN(c2nc(=O)n(-c3c(C)ccnc3C(C)C)c3nc(-c4c(O)cccc4F)c(F)cc23)C(C)C1 | > 1000 nM | > 1000 nM | > 1000 nM | > 1000 nM | 367 nM | 81.2% | 87.4% | 71.8% | 50.8% | 82.5% | 65.8% | 60.8% | 50.8% | 78.4% | 80.9% | 60.7% | 83.5% | 73.6% | 90.2% | 72.5% | viability, T/C [31]: 103%; viability, T/C [32]: 73.6%; viability, T/C [33]: 95.2%; viability, T/C [34]: 88.3%; viability, T/C [35]: 105%; viability, T/C [36]: 83.1%; viability, T/C [16]: 51%; viability, T/C [37]: 94%; viability, T/C [38]: 90.3%; viability, T/C [21]: 74.3%; viability, T/C [22]: 47.5%; viability, T/C [39]: 89.1%; viability, T/C [40]: 99.9%; viability, T/C [27]: 60.1%; viability, T/C [28]: 4.51%
Cn1ncnc1[C@H]1c2n[nH]c(=O)c3cc(F)cc(c23)N[C@@H]1c1ccc(F)cc1 + C=CC(=O)N1CCN(c2nc(=O)n(-c3c(C)ccnc3C(C)C)c3nc(-c4c(O)cccc4F)c(F)cc23)C(C)C1 | > 100 nM | > 100 nM | > 100 nM | > 100 nM | > 100 nM | 102% | 93% |  |  | 98.9% | 72.7% |  |  | 94.6% | 80.8% |  | 90.3% | 89.8% | 96% | 102% | viability, T/C (second compound 0.1 µM, first compound 0.000316 µM): 106%; viability, T/C (second compound 0.1 µM, first compound 0.001 µM): 98.3%; viability, T/C [31]: 81.8%; viability, T/C [32]: 92.3%; viability, T/C (second compound 0.316 µM, first compound 0.000316 µM): 110%; viability, T/C (second compound 0.316 µM, first compound 0.001 µM): 110%; viability, T/C [33]: 101%; viability, T/C [34]: 105%; viability, T/C (second compound 1 µM, first compound 0.000316 µM): 117%; viability, T/C (second compound 1 µM, first compound 0.001 µM): 107%; viability, T/C [35]: 93.1%; viability, T/C [36]: 100%; viability, T/C (second compound 3.16 µM, first compound 0.000316 µM): 97.7%; viability, T/C (second compound 3.16 µM, first compound 0.001 µM): 106%; viability, T/C [37]: 98.8%; viability, T/C [38]: 85.1%; viability, T/C (second compound 10 µM, first compound 0.000316 µM): 117%; viability, T/C (second compound 10 µM, first compound 0.001 µM): 103%; viability, T/C [39]: 84.3%; viability, T/C [40]: 99.8%
